Measurements taken from patent EP4268824A1 (Manros Therapeutics, priority 2022, dated 2023).

Legend:
LogD determined by HPLC = type: physicochemical
F508del-CFTR = molecular target: T1, F508del-CFTR (Homo sapiens, UniProt P13569, DEL508-508); assay: CFTR activation assay: short-circuit current measurements (Ussing chamber) in CFBE cells treated 24 h with CFTR modulator(s) plus compound; type: cell-based; details: substance with R1 = [drawing 9], CFBE cells, with Trikafta®
T1 construct: expressed in transfected cells; host or cells: CFBE41o- cells (CFBE F508del-CFTR), puromycin-selected
T1 sequence (P13569 with tags, fused parts or gaps DEL508-508): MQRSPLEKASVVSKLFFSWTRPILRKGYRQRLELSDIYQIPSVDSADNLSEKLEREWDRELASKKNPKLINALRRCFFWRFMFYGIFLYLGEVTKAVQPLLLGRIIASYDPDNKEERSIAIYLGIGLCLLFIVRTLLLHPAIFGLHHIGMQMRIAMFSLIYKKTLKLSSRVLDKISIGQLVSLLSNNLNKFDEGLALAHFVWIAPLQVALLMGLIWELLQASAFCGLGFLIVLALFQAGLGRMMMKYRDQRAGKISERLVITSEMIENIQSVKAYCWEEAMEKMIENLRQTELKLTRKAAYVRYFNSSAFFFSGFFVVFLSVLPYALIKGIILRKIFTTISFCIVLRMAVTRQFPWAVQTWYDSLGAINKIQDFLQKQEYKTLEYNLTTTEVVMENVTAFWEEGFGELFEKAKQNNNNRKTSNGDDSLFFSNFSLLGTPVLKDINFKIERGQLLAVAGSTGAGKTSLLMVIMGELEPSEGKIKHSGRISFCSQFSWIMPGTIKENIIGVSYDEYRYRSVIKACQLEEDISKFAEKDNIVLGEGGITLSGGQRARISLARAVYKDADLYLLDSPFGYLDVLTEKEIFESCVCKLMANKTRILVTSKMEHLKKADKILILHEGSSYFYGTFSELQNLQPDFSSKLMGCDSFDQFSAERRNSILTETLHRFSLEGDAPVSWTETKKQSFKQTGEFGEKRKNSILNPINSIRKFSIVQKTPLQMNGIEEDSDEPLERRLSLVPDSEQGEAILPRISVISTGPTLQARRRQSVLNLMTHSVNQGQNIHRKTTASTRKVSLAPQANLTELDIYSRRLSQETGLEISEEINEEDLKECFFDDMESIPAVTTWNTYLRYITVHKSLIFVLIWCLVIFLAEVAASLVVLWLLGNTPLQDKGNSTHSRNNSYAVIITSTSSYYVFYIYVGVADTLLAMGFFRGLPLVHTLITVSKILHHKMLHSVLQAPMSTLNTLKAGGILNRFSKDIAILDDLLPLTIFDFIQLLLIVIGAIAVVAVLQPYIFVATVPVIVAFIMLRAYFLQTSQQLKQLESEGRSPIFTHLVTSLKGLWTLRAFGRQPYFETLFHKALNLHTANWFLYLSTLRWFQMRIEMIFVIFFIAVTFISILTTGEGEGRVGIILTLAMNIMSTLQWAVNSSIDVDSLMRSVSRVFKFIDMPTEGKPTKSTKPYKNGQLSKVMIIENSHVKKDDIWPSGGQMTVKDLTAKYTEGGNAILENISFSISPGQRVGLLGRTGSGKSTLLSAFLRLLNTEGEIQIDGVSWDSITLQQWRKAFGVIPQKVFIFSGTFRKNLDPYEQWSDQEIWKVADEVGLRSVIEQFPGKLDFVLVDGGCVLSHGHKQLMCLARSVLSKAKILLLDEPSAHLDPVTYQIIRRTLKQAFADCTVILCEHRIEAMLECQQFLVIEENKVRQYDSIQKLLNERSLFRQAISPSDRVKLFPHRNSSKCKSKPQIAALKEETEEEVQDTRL
Description: • FIG 1. represents the conductance measurement as a function of time for assessing the activity of F508del-CFTR in CFBE cells using the Ussing chamber as set forth in example 13. Cells are incubated for 24 hours with either Trikafta® alone or Trikafta® + a compound of formula (I) as defined herein after. Conductance is measured as a function of time. […] This is the measure which are reported in all Tables shown below. • FIG 2. The correcting effect of Trikafta® on F508del-CFTR in a pulmonary epithelial cell line derived from a F508del-CFTR CF patient was tested as set forth in example 13 herein after in the presence of increasing concentrations of compound (44) as defined herein after and compound (107) as defined herein after. Dose-response curves were built from the activation and inhibition data (see FIG. 1). 100% represents the activity of Trikafta® alone. • FIG 3. […] CFE cells were treated with Trikafta® 100%, 33%, or 11%, in the absence or presence of 1 µM of compound (107). F508del-CFTR activity was monitored as described in the Experimental section and above. Activity is reported as percentage of δF508del-CFTR activity in the presence of Trikafta® alone (100%). The fold change over the activity of Trikafta® alone is indicated in parentheses. • FIG 4. The correcting effect of further CFTR modulators than Trikafta®, i.e. Galapagos compounds as defined herein after (GLPG 222 (G1), GLPG 1837 (G2), GLPG 2451 (G3)) (1 µM each) on F508del-CFTR in a pulmonary epithelial cell line derived from a F508del-CFTR CF patient was tested as set forth in example 13 herein after in the presence of increasing concentrations of compound (107) as defined herein after. Dose-response curves were built from the activation and inhibition data (see FIG. 1). 100% represents the activity of each CFTR modulator alone.
The activity of F508del-CFTR was indeed estimated according to the method described below in example 13. This method makes use of CFBE cells, an immortalized cell line generated from bronchial epithelium of a CF patient homozygous for F508del-CFTR [Kunzelmann, K. et al., 1993. An immortalized cystic fibrosis tracheal epithelial cell line homozygous for the F508del CFTR mutation. Am. J. Respir. Cell Mol. Biol. 8, 522-529.]. Cells are exposed for 24 hours to a combination of Trikafta® and a compound of formula (I) as defined herein after to be evaluated, and the activity of F508del-CFTR is measured by conductance in a Ussing chamber. The activation is initiated by addition of Forskolin (1 µM). […] All compounds tested were evaluated in combination with Trikafta®. In most instances, compounds were tested in triplicates at 0.1, 1 and 10 µM.
Wild-type CFBE cells (containing full-length, unmutated CFTR) are used as a reference.
F508del-CFTR expressing cells used in this present study were treated with CFTR modulators 24 h prior the experiments. The following CFTR modulators were used: Vx770 (Ivacaftor) (Selleckchem, S 1144) (Selleckchem, 24, rue des Tuileries, BP684, 67460 Souffelweyersheim, France), Vx445 (Elexacaftor) (Selleckchem, SE-S8851), Vx661 (Tezacaftor) (TargetMol, HY-15448) (TargetMol, Tebu-bio, 39 rue de Houdan, BP 15, 78612 Le-Perray-en-Yvelines cedex, France). Trikafta® is the combination of 1 µM Vx770, 3 µM Vx 445 and […] Vx661.
CFBE cell line stably expressing F508del-CFTR or WT-CFTR (CFBE WT-CFTR) were grown at 37°C in 5% CO2 - 95% air and media was replaced every 2 days.

| SMILES | chromatographic logD (LogD determined by HPLC) | other results |
| --- | --- | --- |
| CC(C)c1cnc2c(NCc3ccccc3)nc(NCCOc3ccccc3)nn12 [compound 2, N4-Benzyl-7-isopropyl-N2-(2-phenoxyethyl)imidazo[2,1-f][1,2,4]triazine-2,4-diamine] | 4.74 |  |
| CO[C@H]1CCCC1Nc1nc(NCc2ccccc2)c2ncc(C(C)C)n2n1 (stereo partly drawn) [compound 67, N4-Benzyl-7-isopropyl-N2-[(2S)-2-methoxycyclopentyl]imidazo[2,1-f][1,2,4]triazine-2,4-diamine] | 4.25 |  |
| CC(C)c1cnc2c(NCc3ccccc3)nc(NCc3ccncc3)nn12 [compound 125, N4-Benzyl-7-isopropyl-N2-(4-pyridylmethyl)imidazo[2,1-f][1,2,4]triazine-2,4-diamine] | 3.07 |  |
| CO[C@H]1CCCC1Nc1nc(NCc2cccnc2)c2ncc(C(C)C)n2n1 (stereo partly drawn) [compound 68, 7-Isopropyl-N2-[(2S)-2-methoxycyclopentyl]-N4-(3-pyridylmethyl)imidazo[2,1-f][1,2,4]triazine-2,4-diamine] | 3.04 |  |
| CC(C)c1cnc2c(NCc3ccccc3)nc(N3CCC(O)CC3)nn12 [compound 85, 1-[4-(Benzylamino)-7-isopropyl-imidazo[2,1-f][1,2,4]triazin-2-yl]piperidin-4-ol] | 3.19 |  |
| CC(C)c1cnc2c(NCc3ccccc3)nc(NCC3CCN(C)CC3)nn12 [compound 104] | 2.2 |  |
| CC(C)n1cnc2c(NCc3ccccc3)cc(N[C@@H]3CCOC3)nc21 [(A), reference compound] |  | F508del-CFTR activity ('inhibition shift' induced by CFTR-172) in reference to the CFTR activity induced by Trikafta® alone (value=100) (F508del-CFTR; C 0.1 µM): 82.7; F508del-CFTR activity ('inhibition shift' induced by CFTR-172) in reference to the CFTR activity induced by Trikafta® alone (value=100) (F508del-CFTR; C 1 µM): 107.8; F508del-CFTR activity ('inhibition shift' induced by CFTR-172) in reference to the CFTR activity induced by Trikafta® alone (value=100) (F508del-CFTR; C 10 µM): 114.5 |
| CC(C)c1cnc2c(NCc3ccccc3)nc(NCC3CCCCC3)nn12 [compound 105, N4-Benzyl-N2-(cyclohexylmethyl)-7-isopropyl-imidazo[2,1-f][1,2,4]triazine-2,4-diamine] | 5.9 |  |
| CC(C)c1cnc2c(NCc3ccccc3)nc(NCc3nccn3C)nn12 [compound 116, N4-Benzyl-7-isopropyl-N2-[(1-methylimidazol-2-yl)methyl]imidazo[2,1-f][1,2,4]triazine-2,4-diamine] | 2.49 |  |
